Experimental data as given in patent publication US20220168431A1, “METHODS OF TREATING CANCER USING TRIMETAZIDINE-BASED COMPOUNDS” (IMBRIA PHARMACEUTICALS, INC., priority 2019, published 2022).
Several values for one entry are separate records, joined by “and”; a condition that tells them apart may be missing. Equal values may be shown once. Each block holds one compound with its values, some of them ahead of it.

Key:
[1] = Stability of CV-8972 in aqueous solution at different concentrations and pH; assay type: physicochemical
Description: The stability of CV-8972 was analyzed. Aqueous samples containing CV-8972 at different concentrations and pH were incubated for various periods and analyzed.
Form A of CV-8972 were analyzed for stability in aqueous solution. Aqueous samples containing CV-8972 at different concentrations and pH were incubated for various periods and analyzed.

[2] = Stability of CV-8972 forms in various solvents, X-ray powder diffraction; assay type: physicochemical; settings: batch 289-MBA-15-A (form B)
Description: The stability of CV-8972 was analyzed.
Samples from batch 289-MBA-15-A (containing form B) were added to various solvents, incubated under various conditions, and analyzed by X-ray powder diffraction.
Samples from batch 289-MBA-16 (containing forms A and B) were added to various solvents, incubated under various conditions, and analyzed by X-ray powder diffraction.
Samples from batch S-18-0030513 (containing form A) were added to various solvents, incubated under various conditions, and analyzed by X-ray powder diffraction.

[3] = system: isolated hearts after ischemia-reperfusion; assay: Ischemia-reperfusion (IR) method, coronary flow; assay type: in vivo, mice
Description: FIG. 38 is a schematic of the ischemia-reperfusion (IR) method used to analyze the effects of compositions of the invention on coronary flow, cardiac function, and infarct size. […] At 20 minutes, ischemia was induced, and coronary flow was analyzed. At 50 minutes, reperfusion was initiated to restore blood flow. At 170 minutes, coronary flow and cardiac function was analyzed, and then the hearts were preserved, sectioned, and infarct size was measured by triphenyltetrazolium chloride (TTC) staining. FIG. 39 is a graph of coronary flow of after IR.

[4] = system: isolated hearts after ischemia-reperfusion; assay: Ischemia-reperfusion (IR) method, cardiac function (LVDP); assay type: in vivo, mice
Description: FIG. 38 is a schematic of the ischemia-reperfusion (IR) method used to analyze the effects of compositions of the invention on coronary flow, cardiac function, and infarct size. […] At 20 minutes, ischemia was induced, and coronary flow was analyzed. At 50 minutes, reperfusion was initiated to restore blood flow. At 170 minutes, coronary flow and cardiac function was analyzed, and then the hearts were preserved, sectioned, and infarct size was measured by triphenyltetrazolium chloride (TTC) staining. FIG. 40 is graph of left ventricular developed pressure (LVDP) after IR. Blue bars indicate LVDP at 20 minutes, and orange bars indicate LVDP at 170 minutes.

[5] = system: isolated hearts after ischemia-reperfusion; assay: Ischemia-reperfusion (IR) method, infarct size by TTC staining; assay type: in vivo, mice; settings: result in words
Description: FIG. 38 is a schematic of the ischemia-reperfusion (IR) method used to analyze the effects of compositions of the invention on coronary flow, cardiac function, and infarct size. […] At 20 minutes, ischemia was induced, and coronary flow was analyzed. At 50 minutes, reperfusion was initiated to restore blood flow. At 170 minutes, coronary flow and cardiac function was analyzed, and then the hearts were preserved, sectioned, and infarct size was measured by triphenyltetrazolium chloride (TTC) staining. […] FIG. 42 is graph of infarct size after TR.

Retention Time 5.6 (CV-8972 peak) ([1]; 2 mg/mL pH 6 (Form A), 1 hrs, measured pH 6.1): 97.22 | Retention Time 5.6 (CV-8972 peak) ([1]; 2 mg/mL pH 6 (Form A), 4 hrs, measured pH 6.1): 97.01 | Retention Time 5.6 (CV-8972 peak) ([1]; 2 mg/mL pH 6 (Form A), 6 hrs, measured pH 6.1): 96.51 | Retention Time 5.6 (CV-8972 peak) ([1]; 2 mg/mL pH 7 (Form A), 1 hrs, measured pH 6.8): 95.06 | Retention Time 5.6 (CV-8972 peak) ([1]; 2 mg/mL pH 7 (Form A), 4 hrs, measured pH 6.7): 93.7 | Retention Time 5.6 (CV-8972 peak) ([1]; 2 mg/mL pH 7 (Form A), 6 hrs, measured pH 6.7): 92.12 | Retention Time 5.6 (CV-8972 peak) ([1]; 2 mg/mL pH 7 (Form A), 22 hrs, measured pH 6.8): 91.07 | Retention Time 5.6 (CV-8972 peak) ([1]; 10 mg/mL pH 6 (Form A), 1 hrs, measured pH 6.8): 93.43 | Retention Time 5.6 (CV-8972 peak) ([1]; 10 mg/mL pH 6 (Form A), 4 hrs, measured pH 6.8): 91.82 | Retention Time 5.6 (CV-8972 peak) ([1]; 10 mg/mL pH 6 (Form A), 6 hrs, measured pH 6.7): 91.8 | Retention Time 5.6 (CV-8972 peak) ([1]; 10 mg/mL pH 6 (Form A), 22 hrs, measured pH 6.7): 89.66 | Retention Time 5.6 (CV-8972 peak) ([1]; 10 mg/mL pH 7 (Form A), 1 hrs, measured pH 7.2): 89.05 | Retention Time 5.6 (CV-8972 peak) ([1]; 10 mg/mL pH 7 (Form A), 4 hrs, measured pH 7.1): 86.8 | Retention Time 5.6 (CV-8972 peak) ([1]; 10 mg/mL pH 7 (Form A), 6 hrs, measured pH 7.1): 84.79
Structure (SMILES): COc1ccc(CN2CCN(CCOC(=O)c3cccnc3)CC2)c(OC)c1OC.Cl.Cl.Cl [276-MBA-172]

Retention Time 5.6 (CV-8972 peak) ([1]; 2 mg/mL pH 6 (Form B), 1 hrs, measured pH 6.9): 95.1 | Retention Time 5.6 (CV-8972 peak) ([1]; 2 mg/mL pH 6 (Form B), 4 hrs, measured pH 6.8): 92.45 | Retention Time 5.6 (CV-8972 peak) ([1]; 2 mg/mL pH 6 (Form B), 6 hrs, measured pH 6.8): 90.65 | Retention Time 5.6 (CV-8972 peak) ([1]; 2 mg/mL pH 6 (Form B), 22 hrs, measured pH 6.7): 89.15 | Retention Time 5.6 (CV-8972 peak) ([1]; 2 mg/mL pH 7 (Form B), 1 hrs, measured pH 6.6): 95.46 | Retention Time 5.6 (CV-8972 peak) ([1]; 2 mg/mL pH 7 (Form B), 4 hrs, measured pH 6.5): 93.92 | Retention Time 5.6 (CV-8972 peak) ([1]; 10 mg/mL pH 6 (Form B), 1 hrs, measured pH 6.1): 94.81 | Retention Time 5.6 (CV-8972 peak) ([1]; 10 mg/mL pH 6 (Form B), 4 hrs, measured pH 6): 94.69 | Retention Time 5.6 (CV-8972 peak) ([1]; 10 mg/mL pH 6 (Form B), 6 hrs, measured pH 5.9): 94.39 | Retention Time 5.6 (CV-8972 peak) ([1]; 10 mg/mL pH 6 (Form B), 22 hrs, measured pH 5.9): 93.93 | Retention Time 5.6 (CV-8972 peak) ([1]; 10 mg/mL pH 7 (Form B), 1 hrs, measured pH 7.4): 86.18 | Retention Time 5.6 (CV-8972 peak) ([1]; 10 mg/mL pH 7 (Form B), 4 hrs, measured pH 7.4): 82.36 | Retention Time 5.6 (CV-8972 peak) ([1]; 10 mg/mL pH 7 (Form B), 6 hrs, measured pH 7.3): 79.37
Structure (SMILES): COc1ccc(CN2CCN(CCOC(=O)c3cccnc3)CC2)c(OC)c1OC.Cl.Cl.Cl [289-MBA-15-A]

XRPD results ([2]; EtOH, CC from 60° C.): Form C + minor | XRPD results ([2]; no solvent, 100° C., 20 minutes): Form B, shifted
Structure (SMILES): COc1ccc(CN2CCN(CCOC(=O)c3cccnc3)CC2)c(OC)c1OC [CV-8972, 2-(4-(2,3,4-trimethoxybenzyl)piperazin-1-yl)ethyl nicotinate]

Structure (SMILES): COc1ccc(CN2CCNCC2)c(OC)c1OC [TMZ, trimetazidine]
CF170/CF20 ([3]; group MEAN, ratio 170 minutes to 20 minutes): 4.02E+01 ul/m1 | CF170/CF20 ([3]; ratio of flow at 170 minutes to flow at 20 minutes, individual hearts, TMZ 20 μM, TNF 2 μM each, TNS 20 μM each): 2.42E+01 ul/m1 and 5.87E+01 ul/m1 and 3.57E+01 ul/m1 and 3.37E+01 ul/m1 and 5.21E+01 ul/m1 and 2.73E+01 ul/m1 and 2.60E+01 ul/m1 and 6.39E+01 ul/m1 | LVDP × HR ([4]; after 2h reperfusion, group MEAN): 6.82E+03 | LVDP × HR ([4]; after 2h reperfusion, individual hearts): 2.52E+03 and 5.15E+03 and 5.28E+03 and 4.49E+03 and 3.24E+03 and 4.31E+03 and 9.11E+03 and 1.30E+04 and 6.44E+03 and 1.77E+04 | LVDP × HR ([4]; pre-ischemia, group MEAN): 1.68E+04 | LVDP × HR ([4]; pre-ischemia, individual hearts): 1.83E+04 and 2.31E+04 and 1.08E+04 and 1.77E+04 and 2.33E+04 and 1.26E+04 and 9.82E+03 and 1.01E+04 and 1.57E+04 and 2.36E+04 | cardiac function after IR ([4]; result in words): prevented a decline in cardiac function | infarct size after IR [5]: decreased infarct size
